Broadly, the IC50 is the point on the concentration scale where inhibition reaches its midpoint. In general, inhibition refers to the share of the control response that was lost under treatment.

One assay deals with human Cav2.2 (Homo sapiens, UniProt Q00975). The experiment in a line: Assessment of calcium channel activity using FLIPR (Ca2+ influx in IMR32 cells). It counts as cell-based. Particulars: 3 minute pre-incubation with compound (*), 2 μM nifedipine, depolarized with 80 mM KCl. Summed up: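 IC50 came from sigmoidal non-linear regression of percent inhibition, relative to uninhibited activity, across compound concentrations. Calcium influx was measured by FLIPR in IMR32 cells plated at 1-1.2×10^5 cells/well and cultured 48 h at 37 °C.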
Sequence of human Cav2.2 (Q00975 whole entry): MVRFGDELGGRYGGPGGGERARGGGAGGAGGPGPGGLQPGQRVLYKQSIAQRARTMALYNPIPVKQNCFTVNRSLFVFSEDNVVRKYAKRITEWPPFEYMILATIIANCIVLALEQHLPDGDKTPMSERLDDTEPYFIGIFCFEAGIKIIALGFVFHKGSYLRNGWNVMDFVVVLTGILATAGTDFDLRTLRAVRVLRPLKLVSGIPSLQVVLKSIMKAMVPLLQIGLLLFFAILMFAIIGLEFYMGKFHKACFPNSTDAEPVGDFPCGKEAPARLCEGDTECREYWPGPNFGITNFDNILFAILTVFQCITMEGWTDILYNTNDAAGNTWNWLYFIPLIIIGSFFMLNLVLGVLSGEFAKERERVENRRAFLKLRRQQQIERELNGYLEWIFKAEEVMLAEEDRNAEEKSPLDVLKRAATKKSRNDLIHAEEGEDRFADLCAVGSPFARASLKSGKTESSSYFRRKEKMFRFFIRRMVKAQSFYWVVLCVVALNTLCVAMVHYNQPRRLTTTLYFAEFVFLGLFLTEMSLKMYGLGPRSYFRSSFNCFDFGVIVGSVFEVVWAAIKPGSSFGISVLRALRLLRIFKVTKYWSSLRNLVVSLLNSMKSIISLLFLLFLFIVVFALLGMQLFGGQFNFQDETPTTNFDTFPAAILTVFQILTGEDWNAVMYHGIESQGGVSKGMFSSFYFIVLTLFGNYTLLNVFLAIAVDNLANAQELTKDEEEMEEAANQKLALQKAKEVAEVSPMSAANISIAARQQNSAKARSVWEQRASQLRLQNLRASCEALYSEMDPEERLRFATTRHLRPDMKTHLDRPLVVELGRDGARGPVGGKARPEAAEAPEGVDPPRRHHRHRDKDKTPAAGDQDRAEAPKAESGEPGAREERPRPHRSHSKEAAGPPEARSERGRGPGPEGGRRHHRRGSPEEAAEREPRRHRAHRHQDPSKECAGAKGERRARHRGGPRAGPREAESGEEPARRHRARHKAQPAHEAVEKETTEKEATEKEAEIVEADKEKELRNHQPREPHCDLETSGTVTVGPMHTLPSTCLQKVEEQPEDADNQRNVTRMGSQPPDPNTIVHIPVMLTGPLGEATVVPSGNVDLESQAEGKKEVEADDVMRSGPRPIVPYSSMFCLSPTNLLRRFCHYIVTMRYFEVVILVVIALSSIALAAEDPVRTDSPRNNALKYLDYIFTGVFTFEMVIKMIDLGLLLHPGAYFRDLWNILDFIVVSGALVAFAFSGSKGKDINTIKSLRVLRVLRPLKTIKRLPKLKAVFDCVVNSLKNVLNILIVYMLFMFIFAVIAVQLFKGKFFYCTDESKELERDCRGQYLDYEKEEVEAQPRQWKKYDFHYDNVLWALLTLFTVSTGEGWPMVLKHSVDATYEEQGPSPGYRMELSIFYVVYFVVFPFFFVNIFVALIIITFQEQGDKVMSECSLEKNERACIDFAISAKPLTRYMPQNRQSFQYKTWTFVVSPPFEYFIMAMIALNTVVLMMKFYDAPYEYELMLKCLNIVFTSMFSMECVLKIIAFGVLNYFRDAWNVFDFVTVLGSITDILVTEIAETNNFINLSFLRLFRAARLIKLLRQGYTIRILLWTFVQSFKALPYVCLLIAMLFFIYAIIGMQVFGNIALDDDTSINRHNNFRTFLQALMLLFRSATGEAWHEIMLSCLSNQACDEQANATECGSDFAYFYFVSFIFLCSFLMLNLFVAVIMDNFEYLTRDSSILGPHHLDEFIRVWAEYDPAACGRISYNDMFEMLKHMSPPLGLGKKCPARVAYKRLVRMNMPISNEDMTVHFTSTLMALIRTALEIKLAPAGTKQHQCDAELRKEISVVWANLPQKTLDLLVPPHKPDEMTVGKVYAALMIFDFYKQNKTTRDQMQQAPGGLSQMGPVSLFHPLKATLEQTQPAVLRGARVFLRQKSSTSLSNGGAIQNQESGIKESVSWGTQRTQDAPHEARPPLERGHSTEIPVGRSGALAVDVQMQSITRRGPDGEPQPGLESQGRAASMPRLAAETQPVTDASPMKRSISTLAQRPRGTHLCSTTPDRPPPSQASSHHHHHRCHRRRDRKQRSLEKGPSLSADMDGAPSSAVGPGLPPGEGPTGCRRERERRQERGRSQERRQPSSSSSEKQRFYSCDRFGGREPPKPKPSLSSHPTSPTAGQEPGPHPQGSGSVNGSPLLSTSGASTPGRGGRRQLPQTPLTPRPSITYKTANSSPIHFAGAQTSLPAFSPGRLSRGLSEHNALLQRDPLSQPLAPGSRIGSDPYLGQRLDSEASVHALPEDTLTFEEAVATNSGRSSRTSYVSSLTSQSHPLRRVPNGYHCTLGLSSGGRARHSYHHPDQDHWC
Sequence of human Cav2.2 (P54289 25-946 partner limits assumed): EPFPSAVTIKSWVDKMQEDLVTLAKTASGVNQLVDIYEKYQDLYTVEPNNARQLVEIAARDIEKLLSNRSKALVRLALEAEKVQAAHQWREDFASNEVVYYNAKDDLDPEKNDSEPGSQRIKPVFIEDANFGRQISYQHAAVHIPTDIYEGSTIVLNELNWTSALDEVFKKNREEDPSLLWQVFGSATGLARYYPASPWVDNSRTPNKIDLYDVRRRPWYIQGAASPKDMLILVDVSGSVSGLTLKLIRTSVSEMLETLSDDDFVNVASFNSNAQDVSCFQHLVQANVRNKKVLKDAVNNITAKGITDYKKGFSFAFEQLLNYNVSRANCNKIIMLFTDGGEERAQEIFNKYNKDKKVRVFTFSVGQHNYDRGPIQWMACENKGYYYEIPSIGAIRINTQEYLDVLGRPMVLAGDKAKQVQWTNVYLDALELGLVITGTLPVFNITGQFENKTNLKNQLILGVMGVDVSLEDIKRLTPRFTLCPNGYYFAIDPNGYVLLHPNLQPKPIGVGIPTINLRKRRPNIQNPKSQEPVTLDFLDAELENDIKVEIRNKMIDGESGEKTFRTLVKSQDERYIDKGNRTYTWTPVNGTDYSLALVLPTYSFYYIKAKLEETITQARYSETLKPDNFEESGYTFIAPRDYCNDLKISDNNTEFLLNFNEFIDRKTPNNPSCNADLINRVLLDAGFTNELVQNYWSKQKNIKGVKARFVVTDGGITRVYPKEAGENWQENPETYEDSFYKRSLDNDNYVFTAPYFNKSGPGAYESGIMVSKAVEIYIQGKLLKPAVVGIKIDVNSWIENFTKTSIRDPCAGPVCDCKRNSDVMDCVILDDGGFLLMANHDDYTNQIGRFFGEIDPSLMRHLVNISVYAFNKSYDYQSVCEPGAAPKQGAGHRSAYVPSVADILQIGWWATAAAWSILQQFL
Sequence of human Cav2.2 (P54289 947-1103 partner limits assumed): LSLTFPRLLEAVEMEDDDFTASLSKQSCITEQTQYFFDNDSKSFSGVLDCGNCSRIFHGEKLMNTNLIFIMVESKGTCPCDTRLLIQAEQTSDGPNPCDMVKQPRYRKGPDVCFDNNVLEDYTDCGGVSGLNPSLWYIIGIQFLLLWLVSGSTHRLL
Sequence of human Cav2.2 (P54284 whole entry partner): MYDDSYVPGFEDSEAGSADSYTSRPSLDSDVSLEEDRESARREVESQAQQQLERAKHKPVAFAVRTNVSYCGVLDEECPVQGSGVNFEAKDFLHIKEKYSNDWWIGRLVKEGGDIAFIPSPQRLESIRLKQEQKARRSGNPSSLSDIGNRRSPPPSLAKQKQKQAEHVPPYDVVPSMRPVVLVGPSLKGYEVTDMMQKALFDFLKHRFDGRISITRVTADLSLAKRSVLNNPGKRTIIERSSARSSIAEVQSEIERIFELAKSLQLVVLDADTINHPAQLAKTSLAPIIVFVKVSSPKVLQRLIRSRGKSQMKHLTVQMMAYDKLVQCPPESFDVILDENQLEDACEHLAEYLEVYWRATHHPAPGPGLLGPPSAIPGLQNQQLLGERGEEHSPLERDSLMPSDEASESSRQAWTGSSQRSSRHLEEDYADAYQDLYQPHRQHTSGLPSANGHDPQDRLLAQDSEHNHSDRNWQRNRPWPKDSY
Take `CC(C)C(C(=O)N[C@H]1CC[C@@H]2CN(Cc3ccc(C(F)(F)F)c(F)c3)C[C@@H]21)c1ccccc1` (stereo partly drawn) [Example 101, N-{(3aR,4S,6aS)-2-[3-fluoro-4-(trifluoromethyl)benzyl]octahydrocyclopenta[c]pyrrol-4-yl}-3-methyl-2-phenylbutanamide]: the IC50 came to 4.7 µM.
On to `COc1ccc(CN2C[C@H]3CC[C@H](NC(=O)C(c4ccccc4)C(C)C)[C@H]3C2)cc1` (stereo partly drawn) [Example 96, N-[(3aR,4S,6aS)-2-(4-methoxybenzyl)octahydrocyclopenta[c]pyrrol-4-yl]-3-methyl-2-phenylbutanamide], for which the IC50 was found to be 2.4 µM.
For the compound `O=C(N[C@H]1CC[C@@H]2CN(Cc3ccccc3)C[C@@H]21)C(C1CCCCC1)C1CCCCC1` [Example 40, N-[(3aR,4S,6aS)-2-benzyloctahydrocyclopenta[c]pyrrol-4-yl]-2,2-dicyclohexylacetamide], the IC50 was found to be 3.6 µM.
Same read-out and setting: in the case of `O=C(N[C@H]1CC[C@@H]2CN(Cc3ccccc3)C[C@@H]21)C1(c2ccccc2)CC1` [Example 48, N-[(3aR,4S,6aS)-2-benzyloctahydrocyclopenta[c]pyrrol-4-yl]-1-phenylcyclopropanecarboxamide] it was 10.5 µM; in that of `CC(Cc1ccccc1)C(=O)N[C@@H]1CC[C@H]2CN(Cc3ccccc3)C[C@H]21` (stereo partly drawn) [Example 26, N-[(3aS,4R,6aR)-2-benzyloctahydrocyclopenta[c]pyrrol-4-yl]-2-methyl-3-phenylpropanamide], 17.3 µM; in that of `O=C(N[C@@H]1CC[C@H]2CN(Cc3ccccc3)C[C@H]21)C1CCCCCC1` [Example 22, N-[(3aS,4R,6aR)-2-benzyloctahydrocyclopenta[c]pyrrol-4-yl]cycloheptanecarboxamide], 14.7 µM.
With `O=C(N[C@H]1CC[C@H]2CN(Cc3ccccc3)C[C@H]21)C(c1ccccc1)C1CCCC1` (relative stereo) [Example 7, N-[(3aS*,4S*,6aR*)-2-benzyloctahydrocyclopenta[c]pyrrol-4-yl]-2-cyclopentyl-2-phenylacetamide], the IC50 came out at 1.8 µM.
Consider “N-[(3aS*,4R*,6aR*)-2-benzyloctahydrocyclopenta[c]pyrrol-4-yl]-2-cyclohexyl-2-phenylacetamide [Example 4]”, for which the IC50 was 3.5 µM.

The same assay, now with this note: 60 minute pre-incubation with compound, 2 μM nifedipine, depolarized with 80 mM KCl.
Consider `CCC[C@H](NC(=O)OC1CCCC1)C(=O)N[C@H]1CC[C@@H]2CN(Cc3ccc(C(F)(F)F)cc3)C[C@@H]21` [Example 527, Cyclopentyl (S)-1-oxo-1-((3aR,4S,6aS)-2-(4-(trifluoromethyl)benzyl)octahydrocyclopenta[c]pyrrol-4-ylamino)pentan-2-ylcarbamate], for which the IC50 was 2.29 µM.
With `O=C(N[C@H]1CC[C@H]2CN(S(=O)(=O)c3cccc(C(F)(F)F)c3)C[C@H]21)C(C1CCCCC1)C1CCCCC1` [Example 205, 2,2-dicyclohexyl-N-((3aS,4S,6aR)-2-{[3-(trifluoromethyl)phenyl]sulfonyl}octahydrocyclopenta[c]pyrrol-4-yl)acetamide], the IC50 was 3.4 µM.
In the case of `CCC[C@H](NS(C)(=O)=O)C(=O)N[C@H]1CC[C@@H]2CN(Cc3ccc(C(F)(F)F)cc3)C[C@@H]21` [Example 521, N^2-(methylsulfonyl)-N^1-{(3aR,4S,6aS)-2-[4-(trifluoromethyl)benzyl]octahydrocyclopenta[c]pyrrol-4-yl}-L-norvalinamide], the IC50 worked out at 9.6 µM.
With `CN[C@@H](CC1CCCCC1)C(=O)N[C@H]1CC[C@@H]2CN(S(=O)(=O)c3ccc(C(F)(F)F)cc3)C[C@@H]21` [Example 427, 3-cyclohexyl-N^2-methyl-N^1-((3aR,4S,6aS)-2-{[4-(trifluoromethyl)phenyl]sulfonyl}octahydrocyclopenta[c]pyrrol-4-yl)-L-alaninamide], the IC50 was determined as 6.45 µM.
For `CC(C)(C)OC(=O)N[C@H](C(=O)N[C@@H]1CC[C@H]2CN(S(=O)(=O)c3ccc(C(F)(F)F)cc3)C[C@H]21)C(C)(C)C` [Example 342, tert-butyl(S)-3,3-dimethyl-1-oxo-1-((3aS,4R,6aR)-2-(4-(trifluoromethyl)phenylsulfonyl)octahydrocyclopenta[c]pyrrol-4-ylamino)butan-2-ylcarbamate], the IC50 amounted to 2.17 µM.
As to `O=S(=O)(c1cccc(C(F)(F)F)c1)N(C1CC1)[C@@H]1CC[C@H]2CN(Cc3ccccc3)C[C@H]21` (relative stereo) [Example 200, N-[(3aS*,4R*,6aR*)-2-benzyloctahydrocyclopenta[c]pyrrol-4-yl]-N-cyclopropyl-3-(trifluoromethyl)benzenesulfonamide], the IC50 was determined as 1 µM.
On the same count and under the same terms, the figure for `CC(C)C[C@@H](C(=O)N[C@@H]1CC[C@H]2CN(Cc3cccc(C(F)(F)F)c3)C[C@H]21)N1CCCS1(=O)=O` [Example 303, (2S)-2-(1,1-dioxidoisothiazolidin-2-yl)-4-methyl-N-{(3aS,4R,6aR)-2-[3-(trifluoromethyl)benzyl]octahydrocyclopenta[c]pyrrol-4-yl}pentanamide] is 3.11 µM; for `CC(C)(C)OC(=O)N1CCC[C@H]1C(=O)N[C@H]1CC[C@@H]2CN(S(=O)(=O)c3cccc(C(F)(F)F)c3)C[C@@H]21` [Example 271, (S)-tert-butyl 2-((3aR,4S,6aS)-2-(3-(trifluoromethyl)phenylsulfonyl)octahydrocyclopenta[c]pyrrol-4-ylcarbamoyl)pyrrolidine-1-carboxylate] it is 3.41 µM; for `CC(C)C(C(=O)N[C@@H]1CC[C@H]2CN(Cc3ccccc3)C[C@H]21)C(C)C` [Example 235, N-[(3aS,4R,6aR)-2-benzyloctahydrocyclopenta[c]pyrrol-4-yl]-2-isopropyl-3-methylbutanamide] it is 14.2 µM.
For `CC(C)OC(=O)N[C@H](C(=O)N[C@H]1CC[C@@H]2CN(Cc3ccc(C(F)(F)F)cc3)C[C@@H]21)C(C)(C)C` [Example 526, Isopropyl (S)-3,3-dimethyl-1-oxo-1-((3aR,4S,6aS)-2-(4-(trifluoromethyl)benzyl)octahydrocyclopenta[c]pyrrol-4-ylamino)butan-2-ylcarbamate], the IC50 was found to be 2.77 µM.
For `CCN(C(=O)OC(C)(C)C)[C@@H](CC(C)C)C(=O)N[C@H]1CC[C@@H]2CN(Cc3cccc(C(F)(F)F)c3)C[C@@H]21` [Example 310, tert-butyl ethyl((S)-4-methyl-1-oxo-1-((3aR,4S,6aS)-2-(3-(trifluoromethyl)benzyl)octahydrocyclopenta[c]pyrrol-4-ylamino)pentan-2-yl)carbamate], the IC50 was 0.68 µM.
Consider `CCC[C@H](NC)C(=O)N[C@H]1CC[C@@H]2CN(S(=O)(=O)c3cccc(Cl)c3Cl)C[C@@H]21` [Example 548, N^1-{(3aR,4S,6aS)-2-[(2,3-dichlorophenyl)sulfonyl]octahydrocyclopenta[c]pyrrol-4-yl}-N^2-methyl-L-norvalinamide], for which the IC50 stood at 1.05 µM.
Turning to `CC(C)C[C@@H](NS(C)(=O)=O)C(=O)N[C@H]1CC[C@@H]2CN(Cc3cccc(C(F)(F)F)c3)C[C@@H]21` [Example 517, N^2-(methylsulfonyl)-N^1-{(3aR,4S,6aS)-2-[3-(trifluoromethyl)benzyl]octahydrocyclopenta[c]pyrrol-4-yl}-D-leucinamide], the IC50 came to 4.45 µM.
Same read-out and setting: the figure for `Fc1ccc(CN[C@H]2CC[C@@H]3CN(Cc4cccc(C(F)(F)F)c4)C[C@@H]32)cc1` [Example 287, (3aR,4S,6aS)—N-(4-fluorobenzyl)-2-[3-(trifluoromethyl)benzyl]octahydrocyclopenta[c]pyrrol-4-amine] is 3.09 µM.
`CCCC(CCC)C(=O)N[C@H]1CC[C@H]2CN(Cc3cccc(C(F)(F)F)c3)C[C@H]21` (relative stereo) [Example 126, 2-propyl-N-{(3aS*,4S*,6aR*)-2-[3-(trifluoromethyl)benzyl]octahydrocyclopenta[c]pyrrol-4-yl}pentanamide]: the IC50 worked out at 1 µM.
For `CC(C)(C)OC(=O)N[C@H](C(=O)N[C@H]1CC[C@@H]2CN(S(=O)(=O)c3ccc(C(F)(F)F)cc3)C[C@@H]21)C(C)(C)C` [Example 341, tert-butyl(S)-3,3-dimethyl-1-oxo-1-((3aR,4S,6aS)-2-(4-(trifluoromethyl)phenylsulfonyl)octahydrocyclopenta[c]pyrrol-4-ylamino)butan-2-ylcarbamate], the IC50 stood at 2.01 µM.
As for `CC(C)[C@@H](CC(=O)N[C@H]1CC[C@@H]2CN(S(=O)(=O)c3cccc(C(F)(F)F)c3)C[C@@H]21)NC(=O)OC(C)(C)C` [Example 272, tert-butyl(1R)-1-isopropyl-3-oxo-[((3aR,4S,6aS)-2-{[3-(trifluoromethyl)phenyl]sulfonyl}octahydrocyclopenta[c]pyrrol-4-yl)amino]propylcarbamate], the IC50 was 5.14 µM.
On to `CCN[C@@H](CC(C)C)C(=O)N[C@H]1CC[C@@H]2CN(S(=O)(=O)c3cccc(C(F)(F)F)c3)C[C@@H]21` [Example 383, N^2-ethyl-N^1-((3aR,4S,6aS)-2-{[3-(trifluoromethyl)phenyl]sulfonyl}octahydrocyclopenta[c]pyrrol-4-yl)-L-leucinamide], for which the IC50 was found to be 0.8 µM.
As to `O=C(N[C@H]1CC[C@H]2CN(Cc3cccc(C(F)(F)F)c3)C[C@H]21)C1CCCC1` (relative stereo) [Example 129, N-{(3aS*,4S*,6aR*)-2-[3-(trifluoromethyl)benzyl]octahydrocyclopenta[c]pyrrol-4-yl}cyclopentanecarboxamide], the IC50 was 2.9 µM.

The assay is the same for the next values; noted with them: IMR-32, @ 10 μM, 3 minute pre-incubation (*), read-out: percent inhibition.
As to `CC[C@@H](C(=O)N[C@H]1CC[C@@H]2CN(Cc3ccccc3)C[C@@H]21)c1ccccc1` [Example 36, (2R)—N-[(3aR,4S,6aS)-2-benzyloctahydrocyclopenta[c]pyrrol-4-yl]-2-phenylbutanamide], the inhibition at 10 µM amounted to 44%.

The assay is the same for the next values; noted with them: IMR-32, @ 10 μM, 60 minute pre-incubation, read-out: percent inhibition.
Take `O=C(N[C@@H]1CC[C@@H]2CN(Cc3ccccc3)C[C@@H]21)C(c1ccccc1)C1CCCCC1` (relative stereo) [Example 3, N-[(3aR*,4R*,6aS*)-2-benzyloctahydrocyclopenta[c]pyrrol-4-yl]-2-cyclohexyl-2-phenylacetamide]: the inhibition at 10 µM amounted to 91%.
